ChEMBL document CHEMBL1201862, “PubChem BioAssay data set” (2004)
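Results reflect a 48-hour exposure of cells in 96-well plates to compound at five concentrations. The concentration for 50% growth inhibition is given as GI50.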 Calls of active or inactive are those of the source. No stated cut-off is given here; in the data, active = GI50 up to about 1.1 µM and inactive = higher.

Legend:
Test in all cases: DTP human tumour cell line panel, 48 h
[1] = test system: MDA-MB-231
[2] = test system: DU-145
[3] = test system: UO-31
[4] = test system: SK-OV-3
[5] = test system: OVCAR-5
[6] = test system: SN12C
[7] = test system: NCI-H522
[8] = test system: U-251
[9] = test system: SW-620
[10] = test system: MOLT-4
[11] = test system: SK-MEL-5
[12] = test system: COLO 205
[13] = test system: SR
[14] = test system: SK-MEL-2
[15] = test system: CCRF-CEM
[16] = test system: OVCAR-4
[17] = test system: EKVX
[18] = test system: BT-549
[19] = test system: ACHN
[20] = test system: SF-268
[21] = test system: Hs-578T
[22] = test system: HOP-92
[23] = test system: NCI/ADR-RES
[24] = test system: IGROV-1
[25] = test system: OVCAR-8
[26] = test system: UACC-257
[27] = test system: CAKI-1
[28] = test system: HCC 2998
[29] = test system: RXF 393
[30] = test system: HCT-116
[31] = test system: RPMI-8226
[32] = test system: T47D
[33] = test system: OVCAR-3
[34] = test system: NCI-H226
[35] = test system: MDA-MB-435
[36] = test system: PC-3
[37] = test system: KM12
[38] = test system: UACC-62
[39] = test system: K562
[40] = test system: HOP-62
[41] = test system: SNB-19
[42] = test system: SNB-75
[43] = test system: MDA-N
[44] = test system: TK-10
[45] = test system: 786-0
[46] = test system: LOX IMVI
[47] = test system: SK-MEL-28
[48] = test system: A549
[49] = test system: A498
[50] = test system: HL-60
[51] = test system: HCT-15
[52] = test system: SF-295
[53] = test system: NCI-H23
[54] = test system: MCF7
[55] = test system: SF-539
[56] = test system: HT-29
[57] = test system: Malme-3M
[58] = test system: M14
[59] = test system: NCI-H460

With `O=C1Nc2ccccc2/C1=N/NC(=S)N1CCCC1` the GI50 [1] was 6.58 µM (inactive), the GI50 [2] was 17.1 µM (inactive) and the GI50 [3] was 0.632 µM (active). For the same molecule, the GI50 [4] was 5.12 µM (inactive), the GI50 [5] was 12.8 µM (inactive) and the GI50 [6] was 1.91 µM (inactive). For the same molecule, the GI50 [7] was 2.12 µM (inactive), the GI50 [8] was 0.867 µM (active) and the GI50 [9] was 0.766 µM (active). For the same molecule, the GI50 [10] was 0.193 µM (active), the GI50 [11] was 0.585 µM (active) and the GI50 [12] was 1.44 µM (inactive). The GI50 [13] was 0.291 µM (active), the GI50 [14] was 6.27 µM (inactive) and the GI50 [15] was 0.369 µM (active). For the same molecule, the GI50 [16] was 1.01 µM (active), the GI50 [17] was 2.37 µM (inactive) and the GI50 [18] was 2.54 µM (inactive). For the same molecule, the GI50 [19] was 0.64 µM (active), the GI50 [20] was 9.93 µM (inactive) and the GI50 [21] was 2.13 µM (inactive). The GI50 [22] was 8.38 µM (inactive), the GI50 [23] was 0.361 µM (active) and the GI50 [24] was 1.87 µM (inactive). For the same molecule, the GI50 [25] was 1.02 µM (active), the GI50 [26] was 6.97 µM (inactive) and the GI50 [27] was 2.15 µM (inactive). For the same molecule, the GI50 [28] was 0.586 µM (active), the GI50 [29] was 0.358 µM (active) and the GI50 [30] was 0.425 µM (active). For the same molecule, the GI50 [31] was 0.743 µM (active), the GI50 [32] was 6.25 µM (inactive) and the GI50 [33] was 0.53 µM (active). For the same molecule, the GI50 [34] was 0.247 µM (active), the GI50 [35] was 3.64 µM (inactive) and the GI50 [36] was 0.507 µM (active). For the same molecule, the GI50 [37] was 2.4 µM (inactive), the GI50 [38] was 1.32 µM (inactive) and the GI50 [39] was 0.586 µM (active). For the same molecule, the GI50 [40] was 1.19 µM (inactive), the GI50 [41] was 1.15 µM (inactive) and the GI50 [42] was 3.45 µM (inactive). The GI50 [43] was 3.4 µM (inactive), the GI50 [44] was 8.26 µM (inactive) and the GI50 [45] was 0.647 µM (active). The GI50 [46] was 0.673 µM (active), the GI50 [47] was > 100 µM (inactive) and the GI50 [48] was 0.736 µM (active). For the same molecule, the GI50 [49] was 2.95 µM (inactive), the GI50 [50] was 0.583 µM (active) and the GI50 [51] was 0.281 µM. For the same molecule, the GI50 [52] was 0.662 µM (active), the GI50 [53] was 3.01 µM (inactive) and the GI50 [54] was 2.07 µM (inactive). The GI50 [55] was 1.08 µM (active), the GI50 [56] was 1.19 µM (inactive) and the GI50 [57] was 0.889 µM (active). The GI50 [58] was 1.56 µM (inactive) and the GI50 [59] was 0.499 µM (active).

With `Cc1ccc(-c2cc(-c3cc(-c4ccc(C)cc4C)[nH]n3)[nH]n2)c(C)c1` the GI50 [1] was 16.2 µM (inactive), the GI50 [2] was 16.3 µM (inactive) and the GI50 [3] was 23 µM (inactive). The GI50 [4] was 15.2 µM (inactive), the GI50 [5] was 23.7 µM (inactive) and the GI50 [6] was 15.3 µM (inactive). The GI50 [7] was 13.9 µM (inactive), the GI50 [8] was 13.5 µM (inactive) and the GI50 [9] was 11.8 µM (inactive). For the same molecule, the GI50 [10] was 10.1 µM (inactive), the GI50 [11] was 16.4 µM (inactive) and the GI50 [12] was 12.7 µM (inactive). The GI50 [13] was 10.2 µM (inactive), the GI50 [14] was 18.2 µM (inactive) and the GI50 [15] was 0.71 µM (active). For the same molecule, the GI50 [16] was 8.71 µM (inactive), the GI50 [17] was 20.7 µM (inactive) and the GI50 [18] was 21.9 µM (inactive). The GI50 [19] was 11.5 µM (inactive), the GI50 [20] was 12.5 µM (inactive) and the GI50 [21] was 18.1 µM (inactive). The GI50 [22] was 18.9 µM (inactive), the GI50 [23] was 18.9 µM (inactive) and the GI50 [24] was 13.7 µM (inactive). For the same molecule, the GI50 [25] was 15 µM (inactive), the GI50 [26] was 12.4 µM (inactive) and the GI50 [27] was 18.8 µM (inactive). The GI50 [28] was 13.2 µM (inactive), the GI50 [29] was 14.4 µM (inactive) and the GI50 [30] was 16 µM (inactive). For the same molecule, the GI50 [31] was 2.66 µM (inactive), the GI50 [32] was 15 µM (inactive) and the GI50 [33] was 12.2 µM (inactive). For the same molecule, the GI50 [34] was 20.5 µM (inactive), the GI50 [35] was 14.7 µM (inactive) and the GI50 [36] was 15.1 µM (inactive). For the same molecule, the GI50 [37] was 17.7 µM (inactive), the GI50 [38] was 24.8 µM (inactive) and the GI50 [39] was 15.5 µM (inactive). The GI50 [40] was 13.9 µM (inactive), the GI50 [41] was 18.5 µM (inactive) and the GI50 [42] was 18.3 µM (inactive). For the same molecule, the GI50 [43] was 14.9 µM (inactive), the GI50 [44] was 15.6 µM (inactive) and the GI50 [45] was 13 µM (inactive). For the same molecule, the GI50 [46] was 19.9 µM (inactive), the GI50 [47] was 13.7 µM (inactive) and the GI50 [48] was 13.9 µM (inactive). For the same molecule, the GI50 [49] was 16.6 µM (inactive), the GI50 [50] was 0.027 µM (active) and the GI50 [51] was 15.4 µM. The GI50 [52] was 13.1 µM (inactive), the GI50 [53] was 19.8 µM (inactive) and the GI50 [54] was 15 µM (inactive). The GI50 [55] was 17 µM (inactive), the GI50 [56] was 10.8 µM (inactive) and the GI50 [57] was 11.1 µM (inactive). For the same molecule, the GI50 [58] was 15.8 µM (inactive) and the GI50 [59] was 7.93 µM (inactive).
